Laboratory results reported in patent US11873291B2, “Quinoline cGAS antagonist compounds” (ImmuneSensor Therapeutics, Inc., priority 2020, dated 2024).
Where two headings read alike, the source gives them in different places.

Tests used:
[1] = target: T1, recombinant human cGAS (aa147-522) (Homo sapiens, UniProt Q8N884); experiment: In vitro inhibition assay of cGAS activity (ATP consumption, KinaseGlo Max); type: biochemical
T1 construct: recombinant human cGAS (aa147-522); His6-SUMO (cleaved yes); made in house; host or cells: E. coli BL21/pLys
Method in brief: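 IC50 came from plotting % ATP consumption against log compound concentration, with leftover ATP detected by KinaseGlo Max chemiluminescence. Reactions ran 20 min at 37 °C with 1.5 μg/mL human cGAS (aa147-522), 6.6 μM ATP, 0.1 mM GTP and 0.01 mg/mL DNA at pH 7.5.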

[2] = tested on: cGAS activity in Reporter THP1 cell line; experiment: Cellular assay to measure cGAS activity: ISRE-Gaussia luciferase reporter THP1 cells transfected with ISD; type: cell-based; conditions: Homo sapiens
Method in brief: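 THP1 ISRE-Gaussia luciferase reporter cells (0.3×10^6/well) pre-incubated 5 min with compound serial dilutions, then lipofectamine-transfected with 2 μg/mL ISD (45 bp DNA) or mock. Secreted luciferase read 16 h later with 1 μM coelenterazine at pH 6.5; IC50 from fold increase over mock. Specificity counter-screen used 2 μg/mL poly(I:C) or Sendai virus 50 Unit/mL.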

[3] = Table 2, read-out: cGAS Inhibition Results IC50
[4] = THP-1, Table 4, Gaussia luciferase
[5] = Table 3, read-out: cGAS Inhibition Results IC50
[6] = THP-1, untitled table after Table 4 (continuation)

T1 sequence (Q8N884 147-522): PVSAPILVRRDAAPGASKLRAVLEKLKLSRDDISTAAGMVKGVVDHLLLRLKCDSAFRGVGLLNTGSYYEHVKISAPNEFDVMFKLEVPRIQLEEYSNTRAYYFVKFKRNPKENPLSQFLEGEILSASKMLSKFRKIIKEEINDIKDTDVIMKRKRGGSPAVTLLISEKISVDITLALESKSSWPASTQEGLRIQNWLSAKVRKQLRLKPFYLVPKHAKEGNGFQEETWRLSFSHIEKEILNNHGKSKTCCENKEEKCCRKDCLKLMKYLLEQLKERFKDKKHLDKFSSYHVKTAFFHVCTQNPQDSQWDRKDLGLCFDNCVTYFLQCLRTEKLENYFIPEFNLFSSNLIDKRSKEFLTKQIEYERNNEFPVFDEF

Compound | IC50 [1, 3] | IC50 [2, 4] | IC50 [1, 5] | IC50 [2, 6]
OC[C@@H]1CCCN1c1cc(-n2ccnc2)c2ccc(Cl)c(Cl)c2n1 [I-139] | < 2000 nM | 2000 to 10000 nM |  | 
O=C(O)c1cccc(CNc2cc(-n3ccnc3)c3ccc(Cl)c(Cl)c3n2)c1 [I-887] |  |  | < 2000 nM | 2000 to 10000 nM
O=C(O)C[C@@H]1CCN1c1cc(-n2ccnc2)c2ccc(Cl)c(Cl)c2n1 [I-461] |  | > 10000 nM | < 2000 nM | 
O=C(O)CCOC[C@@H]1C[C@H](C(F)(F)F)CN1c1cc(-n2ccnc2)c2ccc(Cl)c(Cl)c2n1 [I-793] |  |  | < 2000 nM | < 2000 nM
COc1cc(Cl)c2nc(N3CCC[C@H]3COCCC(=O)O)cc(-n3ccnc3)c2c1 [I-875] |  |  | < 2000 nM | < 2000 nM
O=C(O)Cc1cccc(OC[C@@H]2CCCN2c2cc(-n3ccnc3)c3ccc(Cl)c(Cl)c3n2)c1 [I-736] |  | < 2000 nM | < 2000 nM | 
CN(CCCCCC(=O)O)c1cc(-n2ccnc2)c2ccc(Cl)c(Cl)c2n1 [I-691] |  | < 2000 nM | < 2000 nM | 
Cc1ccc(-c2cc(-n3ccnc3)c3ccc(Cl)c(Cl)c3n2)cc1COCCC(=O)O [I-877] |  |  | < 2000 nM | < 2000 nM
O=C(O)CCOC[C@@H]1CCCN(c2cc(-c3cn[nH]c3)c3ccc(Cl)c(Cl)c3n2)C1 [I-747] |  | < 2000 nM | < 2000 nM | 
CCOC(=O)[C@@H]1[C@@H](O)CCN1c1cc(-n2ccnc2)c2ccc(Cl)c(Cl)c2n1 [I-599] |  | < 2000 nM | 2000 to 30000 nM | 
O=C(O)CCOCC1COCCN(c2cc(-n3ccnc3)c3ccc(Cl)c(Cl)c3n2)C1 (stereo not shown) [I-868] |  |  | < 2000 nM | 2000 to 10000 nM
O=C(O)CCOC[C@@H]1CCCN1c1cc(-n2ccnc2)c2cc(Br)c(Cl)c(Cl)c2n1 [I-857] |  |  | < 2000 nM | < 2000 nM
O=C(O)c1cnn(CC[C@@H]2CCCN2c2cc(-n3ccnc3)c3ccc(Cl)c(Cl)c3n2)c1 [I-730] |  | 2000 to 10000 nM | < 2000 nM | 
O=C(O)CNC(=O)C[C@@H]1[C@@H](O)CCN1c1cc(-n2ccnc2)c2ccc(Cl)c(Cl)c2n1 [I-788, (2-((2R,3S)-1-(7,8-dichloro-4-(1H-imidazol-1-yl)quinolin-2-yl)-3-hydroxypyrrolidin-2-yl)acetyl)glycine] |  |  | < 2000 nM | > 10000 nM
O=C(O)COC[C@H]1CCCN(c2cc(-n3ccnc3)c3ccc(Cl)c(Cl)c3n2)C1 [I-743] |  | < 2000 nM | < 2000 nM | 
COC(=O)[C@@H]1[C@@H](O)CCN1c1cc(-n2ccnc2)c2ccc(Cl)c(Cl)c2n1 [I-596] |  | < 2000 nM | 2000 to 30000 nM | 
COC(=O)CCOC[C@@H]1[C@@H](O)CCN1c1cc(-n2ccnc2)c2ccc(Cl)c(Cl)c2n1 [I-701] |  | 2000 to 10000 nM | < 2000 nM | 
O=C(O)CCOCCN(c1cc(-n2ccnc2)c2ccc(Cl)c(Cl)c2n1)C1CC1 [I-834] |  |  | < 2000 nM | < 2000 nM
O=C(O)CCOCC1CCCCN(c2cc(-n3ccnc3)c3ccc(Cl)c(Cl)c3n2)C1 (stereo not shown) [I-866] |  |  | < 2000 nM | 2000 to 10000 nM
O=C(O)[C@@H]1CCCN1c1cc(-c2cn[nH]c2)c2ccc(Cl)c(Cl)c2n1 [I-435] | < 2000 nM | 2000 to 10000 nM |  | 
O=C(O)CCOCC1CC2CCC1N2c1cc(-n2ccnc2)c2ccc(Cl)c(Cl)c2n1 (stereo not shown) [I-807] |  |  | < 2000 nM | < 2000 nM
COC(=O)[C@@H]1CC(C)(C)CN1c1cc(-n2ccnc2)c2ccc(Cl)c(Cl)c2n1 [I-583] |  | < 2000 nM | 2000 to 30000 nM | 

Compound | IC50 [1, 3] | IC50 [2, 4] | IC50 [1, 5] | IC50 [2, 6]
COC(=O)COCC[C@@H]1CCCN1c1cc(-n2ccnc2)c2ccc(Cl)c(Cl)c2n1 [I-669] |  | < 2000 nM | 2000 to 30000 nM | 
COC(=O)[C@@H]1[C@@H](OC(C)=O)CCN1c1cc(-n2ccnc2)c2ccc(Cl)c(Cl)c2n1 [I-642, methyl (2S,3S)-3-acetoxy-1-(7,8-dichloro-4-(1H-imidazol-1-yl)quinolin-2-yl)pyrrolidine-2-carboxylate] |  | < 2000 nM | 2000 to 30000 nM | 
CO[C@H]1C[C@@H](COCCC(=O)O)N(c2cc(-n3ccnc3)c3ccc(Cl)c(Cl)c3n2)C1 [I-797] |  |  | < 2000 nM | < 2000 nM
COC(=O)C(C)COC[C@@H]1CCCN1c1cc(-n2ccnc2)c2ccc(Cl)c(Cl)c2n1 (stereo partly shown) [I-720] |  | < 2000 nM | 2000 to 30000 nM | 
COC(=O)[C@H]1CCCN1C(=O)C[C@@H]1CCCN1c1cc(-n2ccnc2)c2ccc(Cl)c(Cl)c2n1 [I-532] |  | 2000 to 10000 nM | 2000 to 30000 nM | 
O=C(O)COC[C@@H](O)[C@@H]1CCCN1c1cc(-n2ccnc2)c2ccc(Cl)c(Cl)c2n1 [I-725, 2-((S)-2-((S)-1-(7,8-dichloro-4-(1H-imidazol-1-yl)quinolin-2-yl)pyrrolidin-2-yl)-2-hydroxyethoxy)acetic acid] |  | > 10000 nM | < 2000 nM | 
O=C(O)CCCCOC[C@@H]1CCCN1c1cc(-n2ccnc2)c2ccc(Cl)c(Cl)c2n1 [I-676] |  | < 2000 nM | < 2000 nM | 
O=C(O)CCOCc1cccc(-c2cc(-n3ccnc3)c3ccc(Cl)c(Cl)c3n2)c1 [I-840, 3-((3-(7,8-dichloro-4-(1H-imidazol-1-yl)quinolin-2-yl)benzyl)oxy)propanoic acid] |  |  | < 2000 nM | < 2000 nM
O=C(O)CCOC[C@@H]1CCCN1c1cc(-n2ccnc2)c2ccc(Cl)c(Cl)c2n1 [I-664, (S)-3-((1-(7,8-dichloro-4-(1H-imidazol-1-yl)quinolin-2-yl)pyrrolidin-2-yl)methoxy)propanoic acid] |  | < 2000 nM | < 2000 nM | 
O=C(O)Cc1ccccc1CNc1cc(-n2ccnc2)c2ccc(Cl)c(Cl)c2n1 [I-888] |  |  | < 2000 nM | 2000 to 10000 nM
O=C(O)CCOCC[C@@H]1CC[C@@H](C(=O)O)N1c1cc(-n2ccnc2)c2ccc(Cl)c(Cl)c2n1 [I-714, (2S,5S)-5-(2-(2-carboxyethoxy)ethyl)-1-(7,8-dichloro-4-(1H-imidazol-1-yl)quinolin-2-yl)pyrrolidine-2-carboxylic acid] |  | 2000 to 10000 nM | < 2000 nM | 
COC(=O)COC[C@@H]1CCCN1c1cc(-n2ccnc2)c2ccc(Cl)c(Cl)c2n1 [I-667, methyl (S)-2-((1-(7,8-dichloro-4-(1H-imidazol-1-yl)quinolin-2-yl)pyrrolidin-2-yl)methoxy)acetate] |  | < 2000 nM | < 2000 nM | 
COC(=O)[C@@H]1C[C@H](F)CN1c1cc(-n2ccnc2)c2ccc(Cl)c(Cl)c2n1 [I-575] |  | 2000 to 10000 nM | 2000 to 30000 nM | 
O=C(O)CCOC[C@@H]1C[C@H]2C[C@H]2N1c1cc(-n2ccnc2)c2ccc(Cl)c(Cl)c2n1 [I-805] |  |  | < 2000 nM | < 2000 nM
O=C(O)COC[C@@H]1CCCN1c1cc(-n2ccnc2)c2ccc(Cl)c(Cl)c2n1 [I-666, (S)-2-((1-(7,8-dichloro-4-(1H-imidazol-1-yl)quinolin-2-yl)pyrrolidin-2-yl)methoxy)acetic acid] |  | < 2000 nM | < 2000 nM | 
O=C(O)CCOC[C@@H]1C[C@H](Oc2ccccc2)CN1c1cc(-n2ccnc2)c2ccc(Cl)c(Cl)c2n1 [I-713] |  | < 2000 nM | < 2000 nM | 
O=C(OCC(F)(F)F)[C@@H]1[C@@H](O)CCN1c1cc(-n2ccnc2)c2ccc(Cl)c(Cl)c2n1 [I-556] |  | < 2000 nM | < 2000 nM | 
O=C(O)C(F)COC[C@@H]1CCCN1c1cc(-n2ccnc2)c2ccc(Cl)c(Cl)c2n1 (stereo partly drawn) [I-716, 3-(((S)-1-(7,8-dichloro-4-(1H-imidazol-1-yl)quinolin-2-yl)pyrrolidin-2-yl)methoxy)-2-fluoropropanoic acid] |  | > 10000 nM | < 2000 nM | 
O=C(O)CCOC[C@@H]1[C@@H](O)CCN1c1cc(-n2ccnc2)c2ccc(Cl)c(Cl)c2n1 [I-698] |  | > 10000 nM | < 2000 nM | 
CN(CCOCCC(=O)O)c1cc(-n2ccnc2)c2ccc(Cl)c(Cl)c2n1 [I-694] |  | < 2000 nM | < 2000 nM | 
O=C(O)CCOC[C@@H]1CCCN1c1cc(-n2ccnc2)c2ccc(Cl)c(Br)c2n1 [I-862] |  |  | < 2000 nM | < 2000 nM
O=C(O)COCC[C@@H]1CCCN1c1cc(-n2ccnc2)c2ccc(Cl)c(Cl)c2n1 [I-668] |  | < 2000 nM | < 2000 nM | 
